{
  "source": "patent US10738028B2",
  "about": "“Spiro three-membered ring, spiro five-membered ring peptide deformylase inhibitor and use thereof in antibacteria and anti-tumor” (priority 2016, dated 2020)",
  "type_in_all_cases": "cell-based",
  "key": {"[1]": {"system": "methicillin-resistant Staphylococcus epidermidis (MRSE)", "assay": "MIC, two-fold agar dilution (CLSI), clinical isolates", "in_short": "(§1)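 Following the American Clinical and Laboratory Standards Institute procedure, agar two-fold dilution served to determine minimum inhibitory concentrations.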"}, "[2]": {"system": "Enterococcus faecium (EFM)", "assay": "MIC, two-fold agar dilution (CLSI), clinical isolates", "in_short": "as §1"}, "[3]": {"system": "methicillin-sensitive Staphylococcus epidermidis (MSSE)", "assay": "MIC, two-fold agar dilution (CLSI), clinical isolates", "in_short": "as §1"}, "[4]": {"system": "Enterococcus faecalis (EFA)", "assay": "MIC, two-fold agar dilution (CLSI), clinical isolates", "in_short": "as §1"}, "[5]": {"system": "Streptococcus pneoumoniae (SPN)", "assay": "MIC, two-fold agar dilution (CLSI), clinical isolates", "in_short": "as §1"}, "[6]": {"system": "Escherichia coli (including ESBLs, non-ESBLs)", "assay": "MIC, two-fold agar dilution (CLSI), clinical isolates", "in_short": "as §1"}, "[7]": {"system": "methicillin-sensitive Staphylococcus aureus (MSSA)", "assay": "MIC, two-fold agar dilution (CLSI), clinical isolates", "in_short": "as §1"}, "[8]": {"system": "Moraxella catarrhalis (BCA)", "assay": "MIC, two-fold agar dilution (CLSI), clinical isolates", "details": "for MIC: Moraxella catarrhalis", "in_short": "as §1"}, "[9]": {"system": "methicillin-resistant Staphylococcus aureus (MRSA)", "assay": "MIC, two-fold agar dilution (CLSI), clinical isolates", "in_short": "as §1"}, "[10]": {"assay": "MIC in vitro anti-bacterial experiments, Gram-positive bacteria", "details": "lowest MIC reached; read-out: minimum inhibitory concentration against Gram-positive bacteria", "from_the_text": "1. The invention adopts the two-fold agar dilution method recommended by the operating procedure of antimicrobial susceptibility testing set by American Clinical and Laboratory Standards Institute (CLSI) to determine the Minimum Inhibitory Concentration (MIC) of the test samples against the tested strains."}, "[11]": {"system": "HCT-116 colorectal cancer cell line", "assay": "CCK-8 proliferation inhibition", "details": "Homo sapiens, HCT-116, 72 h, concentration of 30 μM, 72 hours, CCK-8", "in_short": "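Growth inhibition is read by CCK-8 (1:10 dilution) after 72 h of compound exposure. HCT-116 cells grow in McCoy's 5A containing 10% newborn bovine serum at 2000 cells/well, with 1‰ DMSO as vehicle control.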"}, "[12]": {"system": "BEL-7402 liver cancer cell line", "assay": "CCK-8 proliferation inhibition", "details": "concentration of 30 μM", "in_short": "(§2)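 Plating at 2000 cells/well, then incubation overnight at 37° C. Next, a range of compound concentrations for 72 hours (control 1‰ DMSO). Finally, medium decanted and CCK-8 diluted 1:10 added.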"}, "[13]": {"system": "A549 lung cancer cell line", "assay": "CCK-8 proliferation inhibition", "details": "Homo sapiens, A549, 72 h, concentration of 30 μM", "in_short": "as §2"}, "[14]": {"system": "MGC-803 gastric cancer cell line", "assay": "CCK-8 proliferation inhibition", "details": "Homo sapiens, MGC-803, 72 h, concentration of 30 μM", "in_short": "as §2"}},
  "note": "Where two headings read alike, the source gives them in different places.",
  "data": [
    {"smiles": "Cc1csc(NC(=O)[C@@H]2CC3(CC3)CN2C(=O)[C@H](CC2CCCC2)CN(O)C=O)n1", "note": "[Example 33]", "values": [
      {"measurement": "MIC (anti-bacterial activity)", "setting": "[1]; strain MRSE 15-1", "value": 0.015, "unit": "µg/mL"},
      {"measurement": "MIC (anti-bacterial activity)", "setting": "[1]; strain MRSE 15-2", "value": 0.125, "unit": "µg/mL"},
      {"measurement": "MIC (anti-bacterial activity)", "setting": "[1]; strain MRSE 15-3", "value": 0.125, "unit": "µg/mL"},
      {"measurement": "MIC (anti-bacterial activity)", "setting": "[1]; strain MRSE 15-7", "value": 0.125, "unit": "µg/mL"},
      {"measurement": "MIC (anti-bacterial activity)", "setting": "[2]; strain EFM 15-1", "value": 0.5, "unit": "µg/mL"},
      {"measurement": "MIC (anti-bacterial activity)", "setting": "[2]; strain EFM 15-2", "value": 0.5, "unit": "µg/mL"},
      {"measurement": "MIC (anti-bacterial activity)", "setting": "[2]; strain EFM 15-3", "value": 0.125, "unit": "µg/mL"},
      {"measurement": "MIC (anti-bacterial activity)", "setting": "[2]; strain EFM 15-4", "value": 0.5, "unit": "µg/mL"},
      {"measurement": "MIC (anti-bacterial activity)", "setting": "[2]; strain EFM 15-5", "value": 0.5, "unit": "µg/mL"},
      {"measurement": "MIC (anti-bacterial activity)", "setting": "[2]; strain EFM 15-6", "value": 0.5, "unit": "µg/mL"},
      {"measurement": "MIC (anti-bacterial activity)", "setting": "[3]; strain MSSE 15-3", "value": 0.125, "unit": "µg/mL"},
      {"measurement": "MIC (anti-bacterial activity)", "setting": "[3]; strain MSSE 15-4", "value": 0.125, "unit": "µg/mL"},
      {"measurement": "MIC (anti-bacterial activity)", "setting": "[3]; strain MSSE 15-5", "value": 0.125, "unit": "µg/mL"},
      {"measurement": "MIC (anti-bacterial activity)", "setting": "[3]; strain MSSE 15-6", "value": 0.03, "unit": "µg/mL"},
      {"measurement": "MIC (anti-bacterial activity)", "setting": "[4]; strain EFA 15-1", "value": 1, "unit": "µg/mL"},
      {"measurement": "MIC (anti-bacterial activity)", "setting": "[4]; strain EFA 15-2", "value": 1, "unit": "µg/mL"},
      {"measurement": "MIC (anti-bacterial activity)", "setting": "[4]; strain EFA 15-3", "value": 1, "unit": "µg/mL"},
      {"measurement": "MIC (anti-bacterial activity)", "setting": "[4]; strain EFA 15-4", "value": 1, "unit": "µg/mL"},
      {"measurement": "MIC (anti-bacterial activity)", "setting": "[4]; strain EFA 15-5", "value": 1, "unit": "µg/mL"},
      {"measurement": "MIC (anti-bacterial activity)", "setting": "[4]; strain EFA 15-6", "value": 1, "unit": "µg/mL"},
      {"measurement": "MIC (anti-bacterial activity)", "setting": "[4]; strain EFA 15-9", "value": 1, "unit": "µg/mL"},
      {"measurement": "MIC (anti-bacterial activity)", "setting": "[5]; strain SPN 16-2", "value": 0.06, "unit": "µg/mL"},
      {"measurement": "MIC (anti-bacterial activity)", "setting": "[5]; strain SPN 16-4", "value": 1, "unit": "µg/mL"},
      {"measurement": "MIC (anti-bacterial activity)", "setting": "[6]; strain ECO+ 15-1", "value": "> 32", "unit": "µg/mL"},
      {"measurement": "MIC (anti-bacterial activity)", "setting": "[6]; strain ECO+ 15-2", "value": "> 32", "unit": "µg/mL"},
      {"measurement": "MIC (anti-bacterial activity)", "setting": "[6]; strain ECO+ 15-3", "value": "> 32", "unit": "µg/mL"},
      {"measurement": "MIC (anti-bacterial activity)", "setting": "[6]; strain ECO+ 15-4", "value": "> 32", "unit": "µg/mL"},
      {"measurement": "MIC (anti-bacterial activity)", "setting": "[6]; strain ECO− 15-1", "value": "> 32", "unit": "µg/mL"},
      {"measurement": "MIC (anti-bacterial activity)", "setting": "[6]; strain ECO− 15-2", "value": "> 32", "unit": "µg/mL"},
      {"measurement": "MIC (anti-bacterial activity)", "setting": "[6]; strain ECO− 15-3", "value": "> 32", "unit": "µg/mL"},
      {"measurement": "MIC (anti-bacterial activity)", "setting": "[6]; strain ECO− 15-4", "value": "> 32", "unit": "µg/mL"},
      {"measurement": "MIC (anti-bacterial activity)", "setting": "[7]; strain MSSA 15-3", "value": 0.06, "unit": "µg/mL"},
      {"measurement": "MIC (anti-bacterial activity)", "setting": "[7]; strain MSSA 15-4", "value": 0.03, "unit": "µg/mL"},
      {"measurement": "MIC (anti-bacterial activity)", "setting": "[7]; strain MSSA 15-5", "value": 0.03, "unit": "µg/mL"},
      {"measurement": "MIC (anti-bacterial activity)", "setting": "[7]; strain MSSA 15-6", "value": 0.06, "unit": "µg/mL"},
      {"measurement": "MIC", "setting": "[8]; 7 clinical isolates, range over strains, read-out: Moraxella catarrhalis (n = 7) MIC", "value": "0.06 to 0.25", "unit": "µg/mL"},
      {"measurement": "MIC", "setting": "[8]; lowest MIC reached, read-out: minimum inhibitory concentration against Moraxella catarrhalis, as low as", "value": "≥ 0.06", "unit": "µg/mL"},
      {"measurement": "Anti-bacterial activity (MIC), strain BCA 14-10", "setting": "[8]; clinical isolate BCA 14-10", "value": 0.06, "unit": "µg/mL"},
      {"measurement": "MIC (anti-bacterial activity)", "setting": "[8]; strain BCA 14-1", "value": 0.25, "unit": "µg/mL"},
      {"measurement": "MIC (anti-bacterial activity)", "setting": "[8]; strain BCA 14-4", "value": 0.25, "unit": "µg/mL"},
      {"measurement": "MIC (anti-bacterial activity)", "setting": "[8]; strain BCA 14-5", "value": 0.06, "unit": "µg/mL"},
      {"measurement": "MIC (anti-bacterial activity)", "setting": "[8]; strain BCA 14-6", "value": 0.06, "unit": "µg/mL"},
      {"measurement": "MIC (anti-bacterial activity)", "setting": "[8]; strain BCA 14-7", "value": 0.03, "unit": "µg/mL"},
      {"measurement": "MIC (anti-bacterial activity)", "setting": "[8]; strain BCA 14-8", "value": 0.125, "unit": "µg/mL"},
      {"measurement": "MIC (anti-bacterial activity)", "setting": "[9]; strain MRSA 15-1", "value": 0.03, "unit": "µg/mL"},
      {"measurement": "MIC (anti-bacterial activity)", "setting": "[9]; strain MRSA 15-2", "value": 0.06, "unit": "µg/mL"},
      {"measurement": "MIC (anti-bacterial activity)", "setting": "[9]; strain MRSA 15-3", "value": "< 0.008", "unit": "µg/mL"},
      {"measurement": "MIC (anti-bacterial activity)", "setting": "[9]; strain MRSA 15-4", "value": 0.06, "unit": "µg/mL"},
      {"measurement": "MIC", "setting": "[10]", "value": "< 0.008", "unit": "µg/mL"},
      {"measurement": "inhibition at 30 µM", "setting": "[11]; Table 5, read-out: Inhibition of proliferation, Colorectal cancer HCT116", "value": "≥ 30", "unit": "%"},
      {"measurement": "inhibition at 30 µM", "setting": "[11]; read-out: HCT116 inhibition rate/%", "value": 31, "unit": "%"},
      {"measurement": "inhibition at 30 µM", "setting": "[12]; Homo sapiens, Bel-7402, 72 h", "value": "> 50", "unit": "%"},
      {"measurement": "Inhibition of proliferation, Liver cancer BEL-7402", "setting": "[12]; 72 hours, 30 µM", "value": 57, "unit": "%"},
      {"measurement": "inhibition at 30 µM", "setting": "[13]", "value": 20, "unit": "%"},
      {"measurement": "inhibition at 30 µM", "setting": "[14]", "value": 27, "unit": "%"}
    ]}
  ]
}
